Source: PMC5793121 (Toxins, 2018)
“Also recorded” adds a separate entry of the source. Read-outs that look alike come from different tables or passages of the source.

Columns and labels:
mice [1] = conditions: mouse, in vivo; cited from earlier work
[2] = human; cited from earlier work
Description: Pharmacokinetics and pharmacodynamics are the empirical mathematical models that describe the time course of drug effect after administration. Pharmacokinetics describes the disposition of drug in the organism, while pharmacodynamics relates the drug effects to their concentration in the plasma and at the site of action. They can be used to predict the drug action at different doses and by this way to optimize the safe and effective use of the drug. Information from pharmacokinetic studies can be used in the design and analysis of data from other toxicity studies. Several pharmacokineti ...

[3] = tested on: hprt gene of CHO-k1 cells; conditions: n = 6
[4] = tested on: human neuronal heteromeric α3-containing nAChRs (α3β2, α3β4, etc.); type: cell-based
mice [5] = conditions: 0.1 mg/kg; cited from earlier work
[6] = target: T1, mouse muscle type α1β1εδ nAChR (Mus musculus, UniProt P02716+P04756+P20782); experiment: Calcium imaging of ACh-evoked [Ca2+]i rise in Neuro2a cells expressing muscle nAChR (Case12 sensor); type: cell-based
T1 construct: expressed in transfected cells; host or cells: mouse neuroblastoma Neuro2a, transient transfection (pRBG4 plasmids), co-expressed with Case12 calcium sensor
Method: (§1) Mouse neuroblastoma Neuro2a cells were purchased from the Russian collection of cell cultures (Institute of Cytology, Russian Academy of Sciences, Saint Petersburg, Russia). Cells were cultured in DMEM (Paneco, Moscow, Russia) supplemented with 10% FBS. They were sub-cultured the day before transfection and were plated at a density of 10,000 cells per well in a 96-well black plate. On the next day Neuro2a cells were transiently transfected with plasmids coding mouse muscle α1β1δε nAChR (pRBG4-vector) and a fluorescent calcium sensor Case12 (pCase12-cyto vector, Evrogen, Moscow, Russia) in a molar ratio of 2:1 following a lipofectamine transfection protocol (ThermoFisher Scientific, Waltham, MA, USA). Human α7 nAChR (α7 nAChR-pCEP4) was expressed accordingly with a co-expression of the human chaperone Ric-3 (Ric3-pCMV6-XL5, OriGene, Rockville, MD, USA) in a molar ratio 4:1. The transfected cells were grown at 37 °C in a CO2 incubator for 48–72 h, before performing the calcium imaging assay.
Calcium imaging procedure was performed as published earlier. Briefly, after removing the growth medium, the transfected Neuro2a cells and cultivated SH-SY5Y cells were washed with a buffer containing 140 mM NaCl, 2 mM CaCl2, 2.8 mM KCl, 4 mM MgCl2, 20 mM HEPES, 10 mM glucose; pH 7.4. Neuro2a cells expressing muscle nAChR and the protein calcium sensor Case12 were proceeded directly, while SH-SY5Y cells expressing human α3-containing nAChRs natively were loaded with a fluorescent dye Fluo-4, AM (1.824 μM, ThermoFisher Scientific, Waltham, MA, USA) and a water-soluble probenecid (1.25 mM, ThermoFisher Scientific, Waltham, MA, USA) for 30 min at 37 °C and then were kept for 30 min at room temperature according to the manufacturer’s protocol.
To detect the human α7 nAChR-mediated calcium response, transfected Neuro2a cells were incubated with its positive allosteric modulator PNU120596 (10 μM, Tocris Bioscience, Bristol, UK) for 20 min at room temperature before acetylcholine (Sigma-Aldrich Chemie Gmbh, Munich, Germany) addition. To assess mouse muscle or human α3-containing nAChRs this step was skipped. […]
(§2) The plates were transferred to the multimodal microplate reader Hidex Sence (Hidex, Turku, Finland) where the cells were excited by light of 485 nm wavelength and emitted fluorescence was detected at 535 ± 10 nm. Fluorescence was recorded every 2 s for three minutes following agonist addition. Responses were measured as peak intensity minus basal fluorescence level and were expressed as a percentage of the maximal response obtained to agonist. Data files were analyzed using Hidex Sence software (Hidex, Turku, Finland) and OriginPro 7.5 software (OriginLab, Northampton, MA, USA, for statistical analysis).

[7] = target: T2, human neuronal homopentameric α7 nAChR (Homo sapiens, UniProt P36544); experiment: Calcium imaging of ACh-evoked [Ca2+]i rise in Neuro2a cells expressing α7 nAChR; type: cell-based; conditions: 10 μM ACh (EC50); transfected Neuro2a cells, PNU120596 10 μM; 15 min preincubation; mean ± SEM, 4 independent experiments; read-out: IC50, inhibition of ACh-evoked calcium response of α7 nAChR
T2 construct: expressed in transfected cells; host or cells: mouse neuroblastoma Neuro2a, transient transfection (α7 nAChR-pCEP4) with human Ric-3 (Ric3-pCMV6-XL5, OriGene)
Method: as §1, with “Human α7 nAChR (α7 nAChR-pCEP4) was expressed accordingly with a co-expression of the human chaperone Ric-3 (Ric3-pCMV6-XL5, OriGene, Rockville, MD, USA) in a molar ratio 4:1. The transfected cells were grown at 37 °C in a CO2 incubator for 48–72 h, before performing the calcium imaging assay.” left out
as §2

male ICR mice [8] = experiment: Forelimb grip strength test (muscle relaxant effect) after intramuscular administration; type: in vivo, mouse
Method: 40 male ICR mice were divided equally into four groups: one control and three experimental groups. Animals of the control and experimental groups were treated with normal saline and with Az at doses of 0.03, 0.1 and 0.3 mg/kg, respectively. In addition 6 mice were treated with Az at dose of 0.01 mg/kg. The corresponding solutions were injected into the triceps muscles of the mouse forelimbs at a volume of 0.5 mL/kg per each limb. For all animals their basic forelimb grip strength was recorded before the substance administration with a 1027 grip strength meter (Columbus Instruments, Columbus, OH, USA). Further, their grip strength was measured 5, 10, 15, 20, 30, 60, 90 min after the Az (or normal saline) im administration.
Rocuronium was administered intramuscularly as described for the measurement of acute toxicity (Section 5.4.1). Muscle strength was assessed prior to administration of the substance and then 1, 2, 3, 4, 5 min after administration.

male ICR mice [9] = experiment: in vivo
Method: Az acute toxicity was estimated for its intravenous (iv) and intramuscular (im) administration to male ICR mice in a stepwise procedure.
For the iv route of administration, 20 mice were randomly divided in 5 groups of 4 animals each. The animals of each group received a single dose of Az (0.3, 0.4, 0.5, 0.6, or 0.7 mg/kg, respectively) injected into the lateral tail vein at a volume of 1 mL/kg. For the im route of administration, first two experimental groups of 3 animals each were formed. Az at doses of 0.75 and 1.0 mg/kg, respectively, was injected into the quadriceps muscle of the thigh (quadriceps femoris muscle) of two mouse hind limbs at a volume of 0.5 mL/kg to each muscle. Then, five experimental groups of 5 animals each were formed. Az was injected into the quadriceps muscle of the thigh (quadriceps femoris muscle) of the two hind limbs of male ICR mice at doses of 0.8, 0.775, 0.75, 0.725 and 0.7 mg/kg. The injection volume to each limb was 1 mL/kg. Further, neurotoxic manifestations were recorded in animals at 5, 10, 20, 30, 60 and 90 min and 24 h after administration using the functional observation battery, the number of death was counted as well.
For the iv and im route of administration, the median lethal dose (LD50) was calculated using a probit analysis. For the im route of administration, the maximum tolerated dose was determined.
Rocuronium was administered intramuscularly at doses of 0.13 mg/kg (n = 1), 0.1 mg/kg (n = 4) and 0.08 mg/kg (n = 4) in the triceps of the forelimbs of male ICR mice (8–9 weeks old). Control animals were injected with saline (n = 4). The volume of administration was 0.5 mL/kg in each limb.

[10] = tested on: cultured human peripheral blood lymphocytes; conditions: concentrations without significant cytotoxic effect; cited from earlier work
Description: Mutagenicity, that is the induction of permanent transmissible changes in the amount or structure of the genetic material of cells or organisms, is very important parameter of drug candidate. Highly mutagenic compounds can hardly be considered for drug development, therefore mutagenicity studies are a necessary phase in preclinical evaluations.

rats = conditions: iv injection to rats; cited from earlier work
Method: Acute toxicity of Az was determined using different administration ways: intraperitoneal (ip), intramuscular (im) and intravenous (iv) injections.

[11] = Method: The pharmacokinetic study was performed using 163 male ICR mice. Four experimental groups with 40 animals in each were formed. Three intact mice were used as control animals. The animals of the first two experimental groups were intravenously injected with 0.25 and 0.50 mg/kg [^125I]-Az, respectively. The animals of the other two experimental groups were intramuscularly injected with 0.25 and 0.50 mg/kg [^125I]-Az, respectively. To estimate Az elimination rate, animal blood samples were taken from the orbital sinus 5, 15, 30, 60 min and 1, 2, 4 and 24 h after [^125I]-Az administration. The obtained blood samples were weighed. For each indicated time point, [^125I]-Az concentration was calculated as a mean value in blood samples of five animals. The radioactivity (cpm) in the blood samples was counted using a Wallac 1470 WIZARD® Gamma Counter (Perkin Elmer, Waltham, MA, USA). […] Radioactivity data (cpm) were re-calculated to the concentration of [^125I]-Az in the obtained blood samples. The specific pharmacokinetic parameters (AUC (0 → t), Cmax, T1/2) of [^125I]-Az were estimated.
[12] = intramuscular administration, 0.25 and 0.5 mg/kg, male ICR mice

T1 sequence (P09690 24-501): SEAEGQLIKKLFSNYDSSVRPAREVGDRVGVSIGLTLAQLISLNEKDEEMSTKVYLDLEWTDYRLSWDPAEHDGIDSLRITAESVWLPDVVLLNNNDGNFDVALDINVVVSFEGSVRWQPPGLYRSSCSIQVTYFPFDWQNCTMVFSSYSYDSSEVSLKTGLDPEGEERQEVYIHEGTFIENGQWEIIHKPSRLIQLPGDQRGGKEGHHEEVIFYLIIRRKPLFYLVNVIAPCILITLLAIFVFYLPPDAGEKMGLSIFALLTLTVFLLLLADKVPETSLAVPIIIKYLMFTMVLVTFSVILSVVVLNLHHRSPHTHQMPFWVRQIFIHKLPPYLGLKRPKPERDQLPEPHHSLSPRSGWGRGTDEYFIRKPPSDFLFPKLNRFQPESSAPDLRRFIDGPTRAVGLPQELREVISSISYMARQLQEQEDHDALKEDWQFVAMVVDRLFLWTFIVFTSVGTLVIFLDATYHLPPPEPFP
T1 sequence (P04756 21-457): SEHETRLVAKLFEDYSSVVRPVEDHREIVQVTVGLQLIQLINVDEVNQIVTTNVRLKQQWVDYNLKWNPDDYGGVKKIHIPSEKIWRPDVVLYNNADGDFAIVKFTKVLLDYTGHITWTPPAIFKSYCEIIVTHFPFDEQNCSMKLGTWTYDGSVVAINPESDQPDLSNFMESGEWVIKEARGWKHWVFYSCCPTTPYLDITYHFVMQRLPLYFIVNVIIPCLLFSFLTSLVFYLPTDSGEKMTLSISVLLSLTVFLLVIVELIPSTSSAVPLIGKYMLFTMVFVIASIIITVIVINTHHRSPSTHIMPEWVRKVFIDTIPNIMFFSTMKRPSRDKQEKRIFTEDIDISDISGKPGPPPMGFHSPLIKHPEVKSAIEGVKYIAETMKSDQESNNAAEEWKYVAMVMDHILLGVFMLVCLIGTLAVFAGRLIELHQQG
T1 sequence (P02716 25-520): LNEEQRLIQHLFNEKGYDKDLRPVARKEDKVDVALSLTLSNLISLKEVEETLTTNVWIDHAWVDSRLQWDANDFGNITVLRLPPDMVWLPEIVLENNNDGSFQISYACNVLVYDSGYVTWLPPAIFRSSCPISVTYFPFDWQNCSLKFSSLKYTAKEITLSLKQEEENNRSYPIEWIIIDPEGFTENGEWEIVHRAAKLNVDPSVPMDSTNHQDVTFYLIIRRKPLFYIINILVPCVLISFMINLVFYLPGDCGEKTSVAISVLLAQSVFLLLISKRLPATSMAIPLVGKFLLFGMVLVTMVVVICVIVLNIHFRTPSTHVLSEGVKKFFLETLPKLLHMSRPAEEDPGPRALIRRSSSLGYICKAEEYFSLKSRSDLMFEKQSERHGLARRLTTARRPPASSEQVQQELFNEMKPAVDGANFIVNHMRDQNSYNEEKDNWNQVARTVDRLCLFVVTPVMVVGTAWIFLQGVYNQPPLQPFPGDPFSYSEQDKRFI
T1 sequence (P20782 21-493): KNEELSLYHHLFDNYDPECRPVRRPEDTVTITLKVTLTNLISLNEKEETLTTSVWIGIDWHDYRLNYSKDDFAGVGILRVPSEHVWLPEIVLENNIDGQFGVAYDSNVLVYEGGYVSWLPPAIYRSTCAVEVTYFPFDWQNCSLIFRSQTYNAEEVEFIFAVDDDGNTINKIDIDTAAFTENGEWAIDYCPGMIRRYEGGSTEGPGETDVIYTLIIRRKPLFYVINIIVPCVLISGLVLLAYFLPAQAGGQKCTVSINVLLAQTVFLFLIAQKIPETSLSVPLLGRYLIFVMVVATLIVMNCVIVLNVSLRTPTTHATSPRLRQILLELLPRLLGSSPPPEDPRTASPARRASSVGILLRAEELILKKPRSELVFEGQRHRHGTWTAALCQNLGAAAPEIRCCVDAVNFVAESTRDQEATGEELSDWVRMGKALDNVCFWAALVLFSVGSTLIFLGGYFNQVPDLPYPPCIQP
T2 sequence (P36544 23-502): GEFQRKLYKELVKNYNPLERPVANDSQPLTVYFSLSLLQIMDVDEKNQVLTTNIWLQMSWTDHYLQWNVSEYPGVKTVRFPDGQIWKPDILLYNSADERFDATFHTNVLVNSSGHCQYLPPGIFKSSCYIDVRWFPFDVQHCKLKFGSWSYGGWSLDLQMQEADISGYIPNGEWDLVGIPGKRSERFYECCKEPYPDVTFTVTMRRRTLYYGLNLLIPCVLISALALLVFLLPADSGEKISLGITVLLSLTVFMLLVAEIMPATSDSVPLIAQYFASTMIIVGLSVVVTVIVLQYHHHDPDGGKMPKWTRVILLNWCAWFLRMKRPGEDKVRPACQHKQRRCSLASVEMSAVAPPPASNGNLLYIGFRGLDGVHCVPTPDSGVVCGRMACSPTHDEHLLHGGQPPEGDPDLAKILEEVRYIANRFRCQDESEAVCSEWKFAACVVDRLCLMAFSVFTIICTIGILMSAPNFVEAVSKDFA

In the case of COc1cc2c3cc1Oc1cc(ccc1O)C[C@@H]1c4c(cc(OC)c(O)c4Oc4ccc(cc4)C[C@@H]3N(C)CC2)CC[N+]1(C)C [(+)-tubocurarine], the LD50 (mice [1]) is given as 0.11 mg/kg.
In the case of COc1ccc(CC2c3cc(OC)c(OC)cc3CC[N+]2(C)CCC(=O)OCCCCCOC(=O)CC[N+]2(C)CCc3cc(OC)c(OC)cc3C2Cc2ccc(OC)c(OC)c2)cc1OC (stereo not drawn) [atracurium], the excretion half-life [2] is given as 17 min.
With CCN(N=O)C(N)=O [ethylnitrosurea, reference compound] the “frequency of mutations in the hprt gene” value ([3]; positive control 6.25 and 12.5 μg/mL, absence of S9) was 33.9–39.5 × 10^−6.
With Cc1ccc2cc3c(ccc4ccccc43)c3c2c1CC3 [methylcholanthrene, reference compound] the “frequency of mutations in the hprt gene” value ([3]; positive control 2.5 and 5 μg/mL, presence of S9) was 35.7–45.7 × 10^−6.
Work on CN1CCC[C@H]1c1cccnc1 [nicotine, reference compound] yielded an EC50 ([4]; read-out: EC50 of nicotine-induced calcium responses) of 22 ± 2 µM.
For CC(=O)O[C@H]1C[C@@H]2CC[C@@H]3[C@H](CC[C@@]4(C)[C@H]3C[C@H]([N+]3(C)CCCCC3)[C@@H]4OC(C)=O)[C@@]2(C)C[C@@H]1[N+]1(C)CCCCC1 [pancuronium], the “decrease of grip strength” value (mice [5]) is listed as 24.1%.
For C=CC[N+]1([C@H]2C[C@H]3[C@@H]4CC[C@H]5C[C@H](O)[C@@H](N6CCOCC6)C[C@]5(C)[C@H]4CC[C@]3(C)[C@H]2OC(C)=O)CCCC1 [rocuronium, Rocuronium Bromide, reference compound], the Cmax [2] is listed as 27 µg/kg, the excretion half-life [2] is listed as 71 min and the IC50 ([6]; 30 μM ACh (EC100), transfected Neuro2a cells, Case12 sensor, 15 min preincubation, mean ± SEM, 4 independent experiments, read-out: IC50, inhibition of ACh-evoked calcium response of muscle nAChR) is listed as 0.257 ± 0.0955 µM. For the same compound, the “selectivity to muscle receptor versus α7 nAChR” value ([6]; ratio of calcium imaging IC50 values α7 / muscle) was “about 100 times”, the “inhibition of Nic induced responses” value [4] was “about 60%” and the IC50 [7] was 25.7 ± 4.5 µM. The “effect on grip strength compared to control” value (male ICR mice [8]; rocuronium 0.08 mg/kg im, n = 4) was “no statistically significant difference; also recorded: no statistically significant relaxing effect”, the grip strength (male ICR mice [8]; rocuronium 0.13 mg/kg im, after 60 s, n = 1) was 0 kg and the “time after injection at which effect disappeared” value (male ICR mice [8]; rocuronium im) was ≤ 5 min. The “visible signs of toxicity” value (male ICR mice [9]; rocuronium im 0.08 mg/kg) was “did not induce visible signs of toxicity”, the “time after administration at which toxicity signs disappeared” value (male ICR mice [9]; rocuronium im 0.1 mg/kg) was 3 to 4 min and the “time of first signs of intoxication after injection” value (male ICR mice [9]; rocuronium im 0.13 mg/kg) was 30 s. The “time of death after injection” value (male ICR mice [9]; rocuronium im 0.13 mg/kg, n = 1) was 11.5 min, the lethality (male ICR mice [9]; rocuronium im 0.08 and 0.1 mg/kg, n = 4 each) was “did not cause the death of animals” and the genotoxicity [10] was “capable of causing genotoxicity via clastogenic effects”. For the same compound, the LD50 (rats) was “about 0.3 mg/kg”.
In the case of CC(=O)O[C@H]1C[C@@H]2CC[C@@H]3[C@H](CC[C@@]4(C)[C@H]3C[C@H]([N+]3(C)CCCCC3)[C@@H]4OC(C)=O)[C@@]2(C)C[C@@H]1N1CCCCC1 [vecuronium], the Cmax [2] is given as “about 1 µg/mL” and the LD50 (mice [1]) is given as 0.05 mg/kg.
In the case of diiodoazemiopsin [[^125I]-Az], the “removal from the free blood flow” value ([11]; during 24 h, both iv and im administration) is reported as “almost completely removed”, the “half-life T1/2” value [11, 12] is reported as 20 to 40 min and the “time within which maximum concentration (Cmax) was achieved” value [11, 12] is reported as “five”. For the same compound, the “excretion half-life (T1/2)” value ([11]; single intravenous injection, 0.25 and 0.5 mg/kg, male ICR mice) was 15 to 20 min and the lethality (male ICR mice [9]; [125I]-Az single iv and im 0.25 and 0.50 mg/kg, male ICR mice) was “No lethality”.
For α-conotoxin MII [reference compound], the IC50 ([4]; read-out: IC50, inhibition of calcium responses induced by 100 µM nicotine) was 0.06 ± 0.004 µM.
